# Source: patent US10865191B2, “Heterocyclic compounds useful as modulators of TNF alpha” (BRISTOL-MYERS SQUIBB COMPANY, priority 2015, dated 2020)
# Biological target: TNFα (Homo sapiens, UniProt P01375)
# Test: TNF induced HEK-Blue assay (NF-kB-driven secreted alkaline phosphatase reporter)
# Type: cell-based
# Settings: TNF induced HEK-Blue assay IC50 value, TNFα 0.5 ng/mL, HEK-Blue-CD40L cells, 18 h
# Outline: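 HEK-Blue-CD40L cells (NF-kB-driven SEAP reporter), 20,000/well, added after 30 min pre-incubation of compound (0.004–25 μM final) with TNFα 0.5 ng/mL final at 37 °C; 18 h incubation. SEAP read with QUANTI-Blue at 620 nm; IC50 from 4-parameter logistic fit, normalized to unstimulated and stimulated DMSO controls.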
# TNFα, sequence (P01375 77-233 limits assumed): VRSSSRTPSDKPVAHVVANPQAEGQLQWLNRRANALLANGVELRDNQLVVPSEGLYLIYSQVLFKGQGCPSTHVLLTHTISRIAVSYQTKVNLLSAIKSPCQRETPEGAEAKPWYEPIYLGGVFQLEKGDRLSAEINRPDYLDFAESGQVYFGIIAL
row,Structure (SMILES),IC50
1,"C[C@@H](Nc1c(Cl)cnc2ccc(-c3cnc(N4CCN(CC(=O)O)CC4)nc3)cc12)c1ccccc1F [Example 285, (R)-2-(4-(5-(3-chloro-4-((1-(2-fluorophenyl)ethyl)amino)quinolin-6-yl)pyrimidin-2-yl)piperazin-1-yl)acetic acid]",< 1000 nM

# Same assay, conditions: TNFα 0.5 ng/mL, HEK-Blue-CD40L cells, 18 h; read-out: TNF induced HEK-Blue assay IC50 value
row,IC50,Structure (SMILES)
1,< 1000 nM,"CC(Nc1c(Cl)cnc2cc(F)c(-c3ccc(C(O)CO)cc3)cc12)c1ccccc1F (stereo not drawn) [Example 256, 1-(4-(3-chloro-7-fluoro-4-((1-(2-fluorophenyl)ethyl)amino)quinolin-6-yl)phenyl)ethane-1,2-diol]"
2,< 1000 nM,"CC(Nc1c(Cl)cnc2cc(F)c(-c3cnc(C(C)(O)CO)nc3)cc12)c1ccccc1F (stereo not drawn) [Example 257, 2-(5-(3-chloro-7-fluoro-4-((1-(2-fluorophenyl)ethyl)amino)quinolin-6-yl)pyrimidin-2-yl)propane-1,2-diol]"
3,1000 to 10000 nM,"CC(Nc1c(Cl)cnc2cc(F)c(-c3ccc(C(C)(C)O)c(F)c3)cc12)c1ccccc1F (stereo not drawn) [Example 258, 2-(4-(3-chloro-7-fluoro-4-((1-(2-fluorophenyl)ethyl)amino)quinolin-6-yl)-2-fluorophenyl)propan-2-ol]"
4,10000 to 25000 nM,"CC(Nc1c(Cl)cnc2cc(F)c(-c3cnc(C(C)(O)CO)nc3)cc12)c1ccccc1F (stereo not drawn) [Example 259, 2-(5-(3-chloro-7-fluoro-4-((1-(2-fluorophenyl)ethyl)amino)quinolin-6-yl)pyrimidin-2-yl)propane-1,2-diol]"
5,< 1000 nM,"CC(Nc1c(Cl)cnc2cc(F)c(-c3ccc(C(O)C4CC4)cc3)cc12)c1ccccc1F (stereo not drawn) [Example 260, (4-(3-chloro-7-fluoro-4-((1-(2-fluorophenyl)ethyl)amino)quinolin-6-yl)phenyl)(cyclopropyl)methanol]"
6,< 1000 nM,"CC(Nc1c(Cl)cnc2cc(F)c(-c3ccc(C(O)C4CC4)cc3)cc12)c1ccccc1F (stereo not drawn) [Example 261, (4-(3-chloro-7-fluoro-4-((1-(2-fluorophenyl)ethyl)amino)quinolin-6-yl)phenyl)(cyclopropyl) methanol]"
7,1000 to 10000 nM,"CC(Nc1c(Cl)cnc2cc(F)c(-c3ccc(C(O)C4CC4)cc3)cc12)c1ccccc1F (stereo not drawn) [Example 262, (4-(3-chloro-7-fluoro-4-((1-(2-fluorophenyl)ethyl)amino)quinolin-6-yl)phenyl)(cyclopropyl)methanol]"
8,1000 to 10000 nM,"CC(Nc1c(Cl)cnc2cc(F)c(-c3ccc(C(O)C4CC4)cc3)cc12)c1ccccc1F (stereo not drawn) [Example 263, (4-(3-chloro-7-fluoro-4-((1-(2-fluorophenyl)ethyl)amino)quinolin-6-yl)phenyl)(cyclopropyl)methanol]"
9,< 1000 nM,"CC(Nc1c(Cl)cnc2cc(F)c(-c3ccc(C4(CO)CC4)cc3)cc12)c1ccccc1F (stereo not drawn) [Example 265, (1-(4-(3-chloro-7-fluoro-4-((1-(2-fluorophenyl)ethyl)amino)quinolin-6-yl)phenyl)cyclopropyl) methanol]"
10,< 1000 nM,"CC(Nc1c(Cl)cnc2cc(F)c(-c3cc(F)c(C(C)(C)O)c(F)c3)cc12)c1ccccc1F (stereo not drawn) [Example 268, 2-(4-(3-chloro-7-fluoro-4-((1-(2-fluorophenyl)ethyl)amino)quinolin-6-yl)-2,6-difluorophenyl) propan-2-ol]"
11,< 1000 nM,"CC(C)(O)c1ncc(-c2cc3c(N[C@@H](c4ccccc4F)C(F)F)c(Cl)cnc3cc2F)cn1 [Example 269, (S)-2-(5-(3-chloro-4-((2,2-difluoro-1-(2-fluorophenyl)ethyl)amino)-7-fluoroquinolin-6-yl)pyrimidin-2-yl)propan-2-ol]"
12,< 1000 nM,"CC(C)(O)c1ccc(-c2cc3c(N[C@@H](c4ccccc4F)C(F)F)c(Cl)cnc3cc2F)cn1 [Example 270, (S)-2-(5-(3-chloro-4-((2,2-difluoro-1-(2-fluorophenyl)ethyl)amino)-7-fluoroquinolin-6-yl)pyridin-2-yl)propan-2-ol]"
13,< 1000 nM,"CC(Nc1c(Cl)cnc2cc(F)c(-c3ccc(C(O)CN4CCOCC4)cc3)cc12)c1ccccc1F (stereo not drawn) [Example 272, 1-(4-(3-chloro-7-fluoro-4-((1-(2-fluorophenyl)ethyl)amino)quinolin-6-yl)phenyl)-2-morpholinoethan-1-ol]"
14,< 1000 nM,"CC(Nc1c(Cl)cnc2cc(F)c(-c3cnc(C(O)CN4CCOCC4)cn3)cc12)c1ccccc1F (stereo not drawn) [Example 273, 1-(5-(3-chloro-7-fluoro-4-((1-(2-fluorophenyl)ethyl)amino)quinolin-6-yl)pyrazin-2-yl)-2-morpholinoethan-1-ol]"
15,1000 to 10000 nM,"CC(Nc1c(Cl)cnc2cc(F)c(-c3cnc(C(O)CN4CCOCC4)cn3)cc12)c1ccccc1F (stereo not drawn) [Example 274, 1-(5-(3-chloro-7-fluoro-4-((1-(2-fluorophenyl)ethyl)amino)quinolin-6-yl)pyrazin-2-yl)-2-morpholinoethan-1-ol]"
16,< 1000 nM,"CC(Nc1c(Cl)cnc2cc(F)c(-c3cnc(C(O)CN4CCOCC4)cn3)cc12)c1ccccc1F (stereo not drawn) [Example 275, 1-(5-(3-chloro-7-fluoro-4-((1-(2-fluorophenyl)ethyl)amino)quinolin-6-yl)pyrazin-2-yl)-2-morpholinoethan-1-ol]"

row,IC50,Structure (SMILES)
1,1000 to 10000 nM,"CC(Nc1c(Cl)cnc2cc(F)c(-c3cnc(C(O)CN4CCOCC4)cn3)cc12)c1ccccc1F (stereo not drawn) [Example 276, 1-(5-(3-chloro-7-fluoro-4-((1-(2-fluorophenyl)ethyl)amino)quinolin-6-yl)pyrazin-2-yl)-2-morpholinoethan-1-ol]"
2,< 1000 nM,"CC(Nc1c(Cl)cnc2cc(F)c(-c3ccc(C(O)CN4CCOCC4)cc3)cc12)c1ccccc1F (stereo not drawn) [Example 277, 1-(4-(3-chloro-7-fluoro-4-((1-(2-fluorophenyl)ethyl)amino)quinolin-6-yl)phenyl)-2-morpholinoethan-1-ol]"
3,< 1000 nM,"CC(C)(O)c1ncc(-c2cc3c(NC4(c5ccccc5F)CC4)c(Cl)cnc3cc2F)cn1 [Example 278, 2-(5-(3-chloro-7-fluoro-4-((1-(2-fluorophenyl)cyclopropyl)amino)quinolin-6-yl)pyrimidin-2-yl)propan-2-ol]"
4,1000 to 10000 nM,"CC(C)(O)c1ccc(-c2cc3c(NC4(c5ccccc5F)CC4)c(Cl)cnc3cc2F)cc1 [Example 279, 2-(4-(3-chloro-7-fluoro-4-((1-(2-fluorophenyl)cyclopropyl)amino)quinolin-6-yl)phenyl) propan-2-ol]"
5,< 1000 nM,"C[C@@H](Nc1c(Cl)cnc2cc(F)c(-c3ccc(N4CCN(CC(=O)O)CC4)cc3)cc12)c1ccccc1F [Example 280, (R)-2-(4-(4-(3-chloro-7-fluoro-4-((1-(2-fluorophenyl)ethyl)amino)quinolin-6-yl)phenyl)piperazin-1-yl)acetic acid]"
6,1000 to 10000 nM,"CC(Nc1c(Cl)cnc2cc(F)c(-c3cnc(N4CCC(O)C4)cn3)cc12)c1ccccc1F (stereo not drawn) [Example 284, 1-(5-(3-chloro-7-fluoro-4-((1-(2-fluorophenyl)ethyl)amino)quinolin-6-yl)pyrazin-2-yl)pyrrolidin-3-ol]"
7,< 1000 nM,"CC(Nc1c(Cl)cnc2cc(F)c(-c3ccc(C(O)CN4CCOCC4)cc3)cc12)c1ccccc1F (stereo not drawn) [Example 286, 1-(4-(3-chloro-7-fluoro-4-((1-(2-fluorophenyl)ethyl)amino)quinolin-6-yl)phenyl)-2-morpholinoethan-1-ol]"
8,1000 to 10000 nM,"CC(Nc1c(Cl)cnc2cc(F)c(-c3ccc(C(O)CN4CCOCC4)cc3)cc12)c1ccccc1F (stereo not drawn) [Example 288, 1-(4-(3-chloro-7-fluoro-4-((1-(2-fluorophenyl)ethyl)amino)quinolin-6-yl)phenyl)-2-morpholinoethan-1-ol]"
9,< 1000 nM,"CC(Nc1c(Cl)cnc2cc(F)c(-c3cnc(C4(O)CCS(=O)(=O)CC4)nc3)cc12)c1ccccc1F (stereo not drawn) [Example 289, 4-(5-(3-chloro-7-fluoro-4-((1-(2-fluorophenyl)ethyl)amino)quinolin-6-yl)pyrimidin-2-yl)-4-hydroxytetrahydro-2H-thiopyran 1,1-dioxide]"
10,< 1000 nM,"CC(Nc1c(Cl)cnc2cc(F)c(-c3ccc(C(O)CO)cc3)cc12)c1ccccc1F (stereo not drawn) [Example 290, 1-(4-(3-chloro-7-fluoro-4-((1-(2-fluorophenyl)ethyl)amino)quinolin-6-yl)phenyl)ethane-1,2-diol]"
11,< 1000 nM,"CC(Nc1c(Cl)cnc2cc(F)c(-c3ccc(C(O)CO)cc3)cc12)c1ccccc1F (stereo not drawn) [Example 291, 1-(4-(3-chloro-7-fluoro-4-((1-(2-fluorophenyl)ethyl)amino)quinolin-6-yl)phenyl)ethane-1,2-diol]"
12,< 1000 nM,"COCC(C)(O)c1ncc(-c2cc3c(NC(C)c4ccccc4F)c(Cl)cnc3cc2F)cn1 (stereo not drawn) [Example 292, 2-(5-(3-chloro-7-fluoro-4-((1-(2-fluorophenyl)ethyl)amino)quinolin-6-yl)pyrimidin-2-yl)-1-methoxypropan-2-ol]"
13,< 1000 nM,"COCC(C)(O)c1ncc(-c2cc3c(NC(C)c4ccccc4F)c(Cl)cnc3cc2F)cn1 (stereo not drawn) [Example 293, 2-(5-(3-chloro-7-fluoro-4-((1-(2-fluorophenyl)ethyl)amino)quinolin-6-yl)pyrimidin-2-yl)-1-methoxypropan-2-ol]"
14,< 1000 nM,"CC(Nc1c(Cl)cnc2cc(F)c(-c3cnc(C4(O)CCC(C(=O)O)CC4)nc3)cc12)c1ccccc1F (stereo not drawn) [Example 295, 4-(5-(3-chloro-7-fluoro-4-((1-(2-fluorophenyl)ethyl)amino)quinolin-6-yl)pyrimidin-2-yl)-4-hydroxycyclohexane-1-carboxylic acid]"
15,< 1000 nM,"CC(C)(O)c1ncc(-c2cc(F)c3ncc(Cl)c(N[C@@H](c4ccccc4F)C(F)F)c3c2)cn1 [Example 297, (S)-2-(5-(3-chloro-4-((2,2-difluoro-1-(2-fluorophenyl)ethyl)amino)-8-fluoroquinolin-6-yl)pyrimidin-2-yl)propan-2-ol]"
16,< 1000 nM,"Cc1nc2c(F)cc(-c3cnc(C(C)(C)O)nc3)cc2c(N[C@@H](c2ccccc2F)C(F)F)c1Cl [Example 299, (S)-2-(5-(3-chloro-4-((2,2-difluoro-1-(2-fluorophenyl)ethyl)amino)-8-fluoro-2-methylquinolin-6-yl)pyrimidin-2-yl)propan-2-ol]"
